The results in this text go back to patent US20120213855A1, “DOSAGE FORMS FOR WEAKLY IONIZABLE COMPOUNDS” (CIMA LABS INC., priority 2011, published 2012).

A short description of series [1]: In vitro dissolution in 900 mL DI water, USP type 2 apparatus (Example 3). It is filed as physicochemical. Particulars: 37° C., 50 rpm, 15 mg meloxicam, when introduced to the dissolution medium. Here is the method:
Dissolution was performed in 900 mL of DI water. Dissolution studies were conducted in a USP type 2 apparatus (Varian Inc., Cary, N.C.). Paddle speed and bath temperature were set to 50 rpm and 37° C., respectively. Samples (5 mL) were withdrawn at 5, 10, 15, 30, 45, and 60 minutes and analyzed by UV spectroscopic methods at 360 nm (Varian Cary, Australia). Dissolution experiment was performed in duplicates unless otherwise specified.

Series [2] in a line: In vivo dog study, serum pharmacokinetics by LC/MS/MS (Example 4).
Procedure: Both formulations were administered orally.
For each formulation 4 or 5 dogs were studied. Prior to administration, the animals were fasted overnight and approximately 2 hours post-dose, the animals had access to regular rations for the remaining portion of the study. The animals were dosed multiple times over the course of the study with at least a two-week recovery period between dosing phases. Each formulation was administered as a single dose, with the intravenous dosages occurring in the cephalic vein.
Blood samples were collected from the cephalic or saphenous veins. The samples were stored at room temperature for about 1 hour or until being processed for serum. The samples were centrifuged at 3200 RPM for 10 minutes at 22-26° C. Serum samples were stored at 4±5° C. until analyzed.
The samples were evaluated using LC/MS/MS.
A short description of series [3]: In vivo human study, pharmacokinetics in healthy volunteers (Example 7).
Procedure: The study consisted of a total of eighteen healthy adult volunteers (male and female). Testing was conducted over three phases, with a minimum fourteen day washout period between each phase of the study. Test formulation A and C were randomly dosed during phases 1 and 2, while test formulation B was dosed entirely during phase 3. […] Each formulation was administered as a single dose, with approximately 240 mL of room temperature water.
Twenty-seven blood samples per subject per phase were collected at various time points over the course of 96 hours following dosing. Pharmacokinetic sampling occurred within 90 minutes prior to dosing (0 hour) and after dose administration at 0.5, 1, 1.5, 2, 2.5, 3, 3.5, 4, 4.5, 5, 5.5, 6, 6.5, 7, 7.5, 8, 8.5, 9, 9.5, 10, 12, 16, 24, 48, 72, and 96 hours. The samples were stored at room temperature for about 1 hour or until being processed for serum. The samples were centrifuged at 3000 RPM for 10 minutes at 4° C. (±10° C.). Serum samples were stored at −20±10° C. until analyzed.
The samples were evaluated using a validated bioanalytical method and according to the Bioanalytical Laboratory's Standard Operating Procedures and FDA guidelines.

Turning to `Cc1cnc(NC(=O)C2=C(O)c3ccccc3S(=O)(=O)N2C)s1` [Meloxicam, 4-hydroxy-2-methyl-N-(5-methyl-2-thiazolyl)-2H-1,2-benzothiazine-3-carboxamide-1,1-dioxide], the “meloxicam dissolved in water” value in series [1] came to 12%. The elimination phase result in series [2] and in series [3] was “slow elimination phase” each time.
